≈ marks a conversion by molar mass, not a printed value. Like-named read-outs stand apart in the source and are kept apart here.
How the values were obtained:
[1] = system: P388 murine leukemia cells; assay: MTT cytotoxicity test on P388 murine leukemia cells (Table 1); format: cell-based; conditions: 3 days
Procedure: P388 murine leukemia cells were spread over a 96-well microplate, 2.5×10^3 cells per well. A sample to be tested was added after 24 hours. Cells were cultivated under the conditions of 5% CO2 at 37° C. for 3 days. 3-(4,5-Dimethylthiazol-2-yl)-2,5-diphenyl-2H-tetrazolium bromide (MTT) was added 4 hours after the addition of the sample. Upon the addition of […] of isopropyl alcohol containing 0.04N HCl the absorption at 540 nm was measured to determine IC50.

[2] = molecular target: T1, topoisomerase I (Mus musculus, UniProt Q04750); assay: Topoisomerase I assay, relaxation of supercoiled SV40 DNA; format: biochemical, p388 mouse leukemia
T1 construct: Topoisomerase I was prepared from p388 mouse leukemia; endogenous in cells; host or cells: P388 mouse leukemia
T1 sequence (Q04750 1-767): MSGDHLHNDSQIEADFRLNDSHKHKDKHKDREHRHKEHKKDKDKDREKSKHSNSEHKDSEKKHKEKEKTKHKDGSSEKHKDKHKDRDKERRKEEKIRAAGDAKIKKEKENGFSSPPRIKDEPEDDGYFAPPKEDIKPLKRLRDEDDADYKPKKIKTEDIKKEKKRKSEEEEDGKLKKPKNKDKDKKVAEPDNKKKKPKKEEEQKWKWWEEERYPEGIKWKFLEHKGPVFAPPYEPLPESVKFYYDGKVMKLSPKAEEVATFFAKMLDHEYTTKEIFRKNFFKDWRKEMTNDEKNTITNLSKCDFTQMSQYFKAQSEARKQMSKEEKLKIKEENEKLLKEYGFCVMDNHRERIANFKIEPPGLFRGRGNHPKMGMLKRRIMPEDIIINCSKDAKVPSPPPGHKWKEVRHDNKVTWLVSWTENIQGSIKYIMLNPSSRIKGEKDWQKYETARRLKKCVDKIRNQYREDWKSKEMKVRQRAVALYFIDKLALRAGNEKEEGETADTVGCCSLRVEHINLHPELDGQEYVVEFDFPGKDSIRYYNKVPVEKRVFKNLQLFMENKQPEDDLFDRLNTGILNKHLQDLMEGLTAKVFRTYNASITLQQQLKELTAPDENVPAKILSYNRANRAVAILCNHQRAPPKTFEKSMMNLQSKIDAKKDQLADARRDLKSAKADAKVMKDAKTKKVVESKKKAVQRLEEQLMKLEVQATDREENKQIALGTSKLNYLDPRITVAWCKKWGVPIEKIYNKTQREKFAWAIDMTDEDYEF
Procedure: Topoisomerase I was prepared from p388 mouse leukemia. One unit (the minimum amount of full relaxation of 0.5 μg SV40 DNA) of topoisomerase I,
0.5 μl of the test compounds, and 0.5 μg of SV40 DNA were added sequentially to the reaction buffer. The reaction mixture (50 μl) was incubated for 10 min and 37° C. and analyzed by electrophoresis, the gel was stained with 0.05% ethydium bromide and photographed with UV light. The DNA was quantified using a densitometor. The inhibition rate of the topoisomerase activity was calculated as [formula] where Frt and Frc are ratios of relaxed DNA to total DNA treated with topoisomerase in the presence and absence of the test drug, respectively. Fr is the proportion of relaxed DNA in untreated DNA. The IC50 of each test drug was estimated from the dose-response.

[3] = clinical tests in the United States; cited from earlier work
[4] = system: nucleic acid synthesis; conditions: background statement; cited from earlier work
[5] = system: MCF-7 (Breast); assay: In vitro anti-proliferative activity, MCF-7 (Table 2-2); format: cell-based; conditions: Homo sapiens, MCF7, 72 h, read-out: in vitro anti-proliferative activity (Gl50)
Procedure: (§1) In vitro anti-proliferative activities of the drugs against 4 human and 1 murine cell lines were measured by the MTT assay (see page 11 of the parent specification) after 3 days incubation, and expressed as the doses required to inhibit growth of 50% cells cultivated (Gl50, ng/ml).

[6] = system: QG90 (Lung); assay: In vitro anti-proliferative activity, QG90 (Table 2-2); format: cell-based; conditions: Homo sapiens, QG-90, 72 h, read-out: in vitro anti-proliferative activity (Gl50)
Procedure: as §1

[7] = system: Meth A fibrosarcoma; assay: In vivo anti-tumor activity, Meth A fibrosarcoma in BALB/c mice (Table 3); conditions: i.v.; for Death Nos.: qd×4; for Tumor cell anti-proliferative activity: qd×4 (days 5-8), day 14
Procedure: In vivo anti-tumor activities of drugs were assayed with Meth A fibrosarcoma in BALB/c mice. Mice were treated intravenously with several doses of drugs on days 5, 6, 7, and 8 (qd×4) after hypodermic tumor implantation, and the weight of the tumor masses measured on day 14. The anti-tumor activities of drugs against the tumor were expressed as the relative tumor weight of controls (%).

[8] = system: MKN28 (Stomach); assay: In vitro anti-proliferative activity, MKN28 (Table 2-2); format: cell-based; conditions: Homo sapiens, MKN-28, 72 h, read-out: in vitro anti-proliferative activity (Gl50)
Procedure: as §1

[9] = Acute toxicity in mice; format: in vivo; conditions: i.v., male BALB/c mice, survival on day 14, Probit method
Procedure: Groups of 5 male BALB/c mice were administered intravenously with several doses of drugs, and their survivals from death were recorded up to day 14. The 10 and 50% lethal doses (LD10 and LD50) were calculated form the survival rate on day 14 by the Probit method.

[10] = system: p388 (Mouse leukemia); assay: In vitro anti-proliferative activity, p388 (Table 2-2); format: cell-based; conditions: read-out: in vitro anti-proliferative activity (Gl50)
Procedure: as §1

[11] = system: 4 human and 1 murine cell lines; assay: In vitro anti-proliferative activity, mean over the cell lines (Table 2-2); format: cell-based; conditions: read-out: in vitro anti-proliferative activity (Gl50), MEAN
Procedure: as §1

[12] = system: HOC-21 (Ovary); assay: In vitro anti-proliferative activity, HOC-21 (Table 2-2); format: cell-based; conditions: Homo sapiens, read-out: in vitro anti-proliferative activity (Gl50)
Procedure: as §1

[13] = system: MKN 28 (human stomach cancer cells); assay: MTT method, activity on MKN28 cells (Table 2-1); format: cell-based; conditions: MKN-28, 72 h
Procedure: (§2) See page 11 of the parent specification. In detail, p388 murine leukemia cells, MKN 28 (human stomach cancer cells), QG56 (human lung cancer cells) and HOC21 (human ovarian cancer cells) were provided. The cells were spread over a 96-well microplate, respectively, and a sample to be tested was added to each of them after 24 hours. Cells were cultivated under the conditions of 5% CO2 at 37° C. for 3 days.
(§3) 3-(4,5-Dimethylthiazol-2-yl)-2,5-diphenyl-2H-tetrazolium bromide (abbriviated as MTT) was added thereto 4 hours after the addition of the sample. Upon the addition of […] of isopropyl alcohol containing 0.04N HCl, the absorption at 540 nm was measured To determine IC50.

[14] = system: HOC21 (human ovarian cancer cells); assay: MTT method, activity on HOC21 cells (Table 2-1); format: cell-based; conditions: HOC-21, 72 h
Procedure: as §2, §3

[15] = system: QG56 (human lung cancer cells); assay: MTT method, activity on QG56 cells (Table 2-1); format: cell-based; conditions: QG-56, 72 h
Procedure: as §2, §3

[16] = system: P388 murine leukemia cells; assay: MTT method, activity on p388 cells (Table 2-1); format: cell-based; conditions: Mus musculus
Procedure: as §2, §3

[17] = MCF-7 (Breast), MTT, 3 days incubation
[18] = QG90 (Lung), MTT, 3 days incubation
[19] = MKN28 (Stomach), MTT, 3 days incubation
[20] = 72 h, p388 (Mouse leukemia), MTT, 3 days incubation
[21] = 72 h, HOC-21 (Ovary), MTT, 3 days incubation

With `CC[C@@]1(O)C(=O)OCc2c1cc1n(c2=O)Cc2c-1nc1ccc(OC)c3c1c2C(N)CC3.Cl` (single isomer, unassigned) [Example 4 (Isomer A)] the IC50 ([1]; hydrochloride) was 9.21 ng/mL.

For `CC[C@@]1(O)C(=O)OCc2c1cc1n(c2=O)Cc2c-1nc1ccc(OC)c3c1c2C(N)CC3.Cl` (single isomer, unassigned) [Example 4 (Isomer B)], the IC50 ([1]; hydrochloride) was 27.80 ng/mL.

Work on `CC[C@@]1(O)C(=O)OCc2c1cc1n(c2=O)Cc2c-1nc1cccc3c1c2C(N)CC3.Cl` (single isomer, unassigned) [Example 2 (Isomer A)] yielded an IC50 ([1]; hydrochloride) of 3.38 ng/mL.

In the case of `CC[C@@]1(O)C(=O)OCc2c1cc1n(c2=O)Cc2c-1nc1ccc(OC)c3c1c2CCC3N.Cl` (single isomer, unassigned) [Example 7 (Isomer B)], the IC50 ([1]; hydrochloride) is reported as 11.90 ng/mL.

In the case of `CC[C@@]1(O)C(=O)OCc2c1cc1n(c2=O)Cc2cc3ccccc3nc2-1` [camptohecin, camptothecin], the IC50 [2] is given as 43.9 µM, the “safety in clinical tests” value [3] is given as “problem in view of safety” and the antitumor activity [4] is given as “exhibit an antitumor activity”.

With `CCc1c2c(nc3ccc(OC(=O)N4CCC(N5CCCCC5)CC4)cc13)-c1cc3c(c(=O)n1C2)COC(=O)[C@]3(O)CC` [CPT-11, irinotecan] the IC50 [5, 17] was 1200 ng/mL (≈ 2.04 µM), the IC50 [6, 18] was 1550 ng/mL (≈ 2.65 µM) and the “Death Nos.” value ([7]; total dose 25 mg/kg) was 0/6. The “Tumor cell anti-proliferative activity” value ([7]; total dose 25 mg/kg) was 31.4%, the “Death Nos.” value ([7]; total dose 50 mg/kg) was 0/6 and the “Tumor cell anti-proliferative activity” value ([7]; total dose 50 mg/kg) was 53.3%. For the same molecule, the “Death Nos.” value ([7]; total dose 100 mg/kg) was 0/6, the “Tumor cell anti-proliferative activity” value ([7]; total dose 100 mg/kg) was 62.3% and the “Death Nos.” value ([7]; total dose 200 mg/kg) was 0/6. For the same molecule, the “Tumor cell anti-proliferative activity” value ([7]; total dose 200 mg/kg) was 79.4%, the IC50 [8, 19] was 8690 ng/mL (≈ 14.8 µM) and the LD10 [9] was 198 mg/m^2. For the same molecule, the LD50 [9] was 270 mg/m^2, the IC50 [10, 20] was 2850 ng/mL (≈ 4.86 µM) and the IC50 ([11]; mean of the 5 cell lines) was 5870 ng/mL (≈ 10 µM). The IC50 [12, 21] was 15100 ng/mL (≈ 25.7 µM).

`CC[C@@]1(O)C(=O)OCc2c1cc1n(c2=O)Cc2c-1nc1cccc3c1c2C(N)CC3.Cl` (single isomer, unassigned) [Example 2 (Isomer B)] showed an IC50 ([1]; hydrochloride) of 12.40 ng/mL.

In the case of `CCc1c2c(nc3ccc(O)cc13)-c1cc3c(c(=O)n1C2)COC(=O)[C@]3(O)CC` [SN-38, 7Ethyl-10-hydroxycamptothecin], the IC50 [5, 17] is reported as 0.49 ng/mL (≈ 0.00125 µM), the IC50 ([2]; SV40 DNA, 10 min, 37° C., read-out: Inhibition of topoisomerase I-induced relaxation of supercoiled DNA (IC50) (converted)) is reported as 3.57 µM and the IC50 [6, 18] is reported as 1.43 ng/mL (≈ 0.00364 µM). For the same molecule, the IC50 ([13]; MKN28, MTT, 3 days, read-out: IC50) was 61 ng/mL (≈ 0.155 µM), the IC50 ([14]; HOC21, MTT, 3 days, read-out: IC50) was 53.2 ng/mL (≈ 0.136 µM) and the IC50 [8, 19] was 21.7 ng/mL (≈ 0.0552 µM). The IC50 ([15]; QG56, MTT, 3 days, read-out: IC50) was 2.46 ng/mL (≈ 0.00627 µM), the IC50 [10, 20] was 3.22 ng/mL (≈ 0.00821 µM) and the IC50 ([16]; 72 h, p388, MTT, 3 days, read-out: IC50) was 1.33 ng/mL (≈ 0.00339 µM). The IC50 ([11]; mean of the 5 cell lines) was 9.63 ng/mL (≈ 0.0245 µM) and the IC50 [12, 21] was 21.4 ng/mL (≈ 0.0544 µM).

`CC[C@@]1(O)C(=O)OCc2c1cc1n(c2=O)Cc2c-1nc1ccc(OC)c3c1c2CCC3N.Cl` (single isomer, unassigned) [Example 7 (Isomer A)] showed an IC50 ([1]; Mus musculus, P388, 72 h, read-out: IC50) of 11.4 ng/mL.

`CC[C@@]1(O)C(=O)OCc2c1cc1n(c2=O)Cc2c-1nc1cc(F)c(C)c3c1c2C(N)CC3.Cl` (stereo partly drawn) [DX-8951, (9S)-1-amino-9-ethyl-5-fluoro-2,3-dihydro-9-hydroxy-4-methyl-1H,12H-benzo[de]pyrano[3',4':6,7]indolizino[1,2-b]quinoline-10,13(9H,15H)-dione hydrochloride] gave an IC50 [5] of 0.16 ng/mL, an IC50 [2] of 1.12 µM and an IC50 [6] of 0.66 ng/mL. For the same molecule, the “Death Nos.” value ([7]; total dose 1.875 mg/kg) was 0/6, the “Tumor cell anti-proliferative activity” value ([7]; total dose 1.875 mg/kg) was 72.5% and the “Death Nos.” value ([7]; total dose 3.75 mg/kg) was 0/6. For the same molecule, the “Tumor cell anti-proliferative activity” value ([7]; total dose 3.75 mg/kg) was 78.3%, the “Death Nos.” value ([7]; total dose 7.5 mg/kg) was 0/6 and the “Tumor cell anti-proliferative activity” value ([7]; total dose 7.5 mg/kg) was 87.5%. The “Death Nos.” value ([7]; total dose 15 mg/kg) was 0/6, the “Tumor cell anti-proliferative activity” value ([7]; total dose 15 mg/kg) was 96.6% and the “Death Nos.” value ([7]; total dose 30 mg/kg) was 2/6. The “Tumor cell anti-proliferative activity” value ([7]; total dose 30 mg/kg) was 96.4%, the IC50 [13] was 9.4 ng/mL and the IC50 [14] was 12.8 ng/mL. It also gave an IC50 [8] of 1.75 ng/mL, an IC50 [15] of 0.67 ng/mL and an LD10 [9] of 228 mg/m^2. It also gave an LD50 [9] of 270 mg/m^2, an IC50 ([10]; Mus musculus, P388, 72 h) of 1.06 ng/mL and an IC50 ([16]; P388, 72 h) of 0.58 ng/mL. The IC50 [11] was 1.46 ng/mL and the IC50 ([12]; HOC-21, 72 h) was 3.67 ng/mL.
